{
  "source": "patent US6548634B1",
  "about": "“Synthetic peptides having FGF receptor affinity” (priority 1998, dated 2003)",
  "molecules": {"B1": {"name": "F12jun: F12 sequence fused to GGGS linker, c-jun leucine zipper flanked by cysteines, polyhistidine tag; SEQ ID NO:43 (protein)", "chain": "MATLVCDTVLEGQWRVCNWEGPGGGSGGGSGGGSGGGSGGGSRCGGRIARLEEKVKTLKAQNSELASTANMLREQVAQLKQKVMNGGCGGSGGHHHHHH"}, "B2": {"name": "C19junΔhep: C19jun with c-jun residues Arg276, Arg279, Lys285, Lys288 in the leucine zipper changed to glutamines (protein)", "chain": "MAESGDDYCVLVFTDSAWTKICDWSHFRNGPGGGSGGGSGGGSGGGSGGGSRCGGQIAQLEEKVQTLQAQNSELASTANMLREQVAQLKQKVMNHGGCGGSGGHHHHHH"}},
  "key": {"[1]": {"tested_on": "293 cells expressing full-length FGFR1c", "test": "MAP kinase phosphorylation in 293 cells expressing FGFR1c", "format": "cell-based", "details": "1.0 nM bFGF or 50 nM C19jun, 15 U/ml heparin, 15 minutes", "experimental": "(§1) To determine whether C19jun could activate FGF receptors in vivo, Swiss 3T3 cells were treated with basic FGF (bFGF) or purified C19jun protein. Cell extracts were then immunoprecipitated with anti-FGFR antibodies, analyzed by SDS-PAGE and immunoblotted with anti-phosphotyrosine antibodies. Extracts from bFGF and C19jun-stimulated 293 cells expressing FGFR1c were also immunoblotted with phospho-MAP Kinase-specific antibodies.\n(§2) Swiss 3T3 fibroblasts, or 293 cells expressing full-length FGFRIc were incubated in quiescing media (DMEM, 1 μg/ml insulin, 5 μg/ml transferrin, 0.5 mg/ml BSA) for 24-48 hrs, and then stimulated with 1.0 nM bFGF or 50 nM refolded C19jun protein in the presence of 15 U/ml heparin for 15 minutes at 37° C. The cells were lysed and aliquots of lysate containing equal amounts of total protein were either analyzed directly by immunoblotting with phospho-MAPKspecific antibodies and anti-total MAPK antisera (New England Biolabs) or immunoprecipitated with anti-FGFR antisera and immunoblotted with anti-phosphotyrosine antibodies (Upstate Biotechnology, Inc.). Both bFGF and C19jun induced FGFR autophosphorylation and MAP kinase phosphorylation."}, "FGFR": {"tested_on": "FGFR", "test": "FGFR autophosphorylation in Swiss 3T3 cells (anti-FGFR IP, anti-phosphotyrosine blot)", "format": "cell-based", "details": "1.0 nM bFGF or 50 nM C19jun, 15 U/ml heparin, 15 minutes", "experimental": "as §1, §2"}, "PC12 cells": {"tested_on": "PC12 cells", "test": "PC12 cell neurite outgrowth", "format": "cell-based", "details": "1 nM bFGF or 2 nM C19-jun, 15 U/ml heparin, 4 days", "experimental": "1×10^4 PC12 cells per well were plated on mouse laminin-and-poly-L-lysine-coated 24-well plates in 1 ml of media (RPMI 1640, 10% horse serum, 5% FCS, antibiotics) and stimulated with 1 nM bFGF or 2 nM C19-jun protein in the presence of 15 U/ml heparin for 4 days."}, "Swiss 3T3 fibroblasts": {"tested_on": "Swiss 3T3 fibroblasts", "test": "BrdU incorporation (mitogenesis) in Swiss 3T3 fibroblasts", "format": "cell-based", "details": "for mitogenic activity in Swiss 3T3: BrdU incorporation", "experimental": "6×Histidine-tagged Clone 19-jun protein (FIG. 1A) was expressed in bacteria and purified by metal affinity chromatography as described in Example 5. Assay of BrdU incorporation, a measure of entry of cells into S-phase and therefore of mitogenesis, was performed according to manufacturers instructions (Cell proliferation ELISA, BrdU, Cat. No. 1-647-229, Boehringer-Mannheim, Indianapolis, Ind.). Briefly, 1×10^4 Swiss 3T3 cells per well were plated on gelatin-coated 96-well microtiter plates in complete media (DMEM, 10% FCS, antibiotics), incubated 24 hours, and the media changed to quiescent media for an addition 24 hours (DMEM containing 0.5 mg/ml bovine serum albumin, 1 μg/ml insulin, 5 μg/ml transferrin, antibiotics). The cells were then treated with bFGF or Clone 19-jun protein at the indicated concentrations in the presence of 15 U/ml heparin. 18 hours later, BrdU was added, the cells incubated an additional 4 hours, and assayed as described. […] Heparin alone had no effect, nor did a control protein expressed and purified in the same manner in which the C19 sequence was deleted."}, "[2]": {"tested_on": "L6 myoblast cell lines stably expressing FGFR1c", "test": "c-fos mRNA expression in L6 myoblasts stably expressing FGFR1c", "format": "cell-based"}, "control L6 cells": {"tested_on": "control L6 cells", "test": "c-fos mRNA expression in control L6 cells that do not express FGFR", "format": "cell-based"}, "[3]": {"target": "T1, FGFR1c extracellular domain-IgG fusion protein (Homo sapiens, UniProt P11362)", "T1 construct": "human FGFR Ic (residues 1-377); made in house", "T1 sequence (P11362 22-377)": "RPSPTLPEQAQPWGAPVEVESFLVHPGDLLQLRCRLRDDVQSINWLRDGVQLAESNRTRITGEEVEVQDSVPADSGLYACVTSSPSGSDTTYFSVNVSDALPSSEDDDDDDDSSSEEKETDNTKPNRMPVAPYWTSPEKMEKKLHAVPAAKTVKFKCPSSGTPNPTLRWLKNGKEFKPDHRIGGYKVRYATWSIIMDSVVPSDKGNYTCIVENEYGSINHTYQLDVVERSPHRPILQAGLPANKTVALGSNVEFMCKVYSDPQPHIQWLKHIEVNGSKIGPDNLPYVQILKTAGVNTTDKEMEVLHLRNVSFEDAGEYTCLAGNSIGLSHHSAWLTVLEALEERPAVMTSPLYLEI", "test": "Eu-labeled FGFR-IgG displacement from immobilized phagemid", "format": "binding", "details": "phage-displayed peptide, FIG. 7, read-out: IC50, displacement of Europium-labeled FGFR-IgG by unlabeled FGFR-IgG", "experimental": "The immobilization of phagemid using antibodies, followed by probing with selected ligand in an ELISA format has been reported previously (Valadon, P. & Scharff, M. D., 1996 J. Immunol. Methods 197, 171-179). We developed a more sensitive detection method using Europium chelate-conjugated target receptor.\nNunc Maxisorp 96-well plates were coated with […] anti-M13 antibody in […] 50 mM Na2CO3 pH 9.6 and blocked using the conditions described in Example 2. Phagemid (˜10^11 cfu) were applied to wells in binding buffer for 1 h and washed 6 times with PBS, 0.05% Tween 20, and 2 times with Delphia Wash Buffer (E&G Wallac). Serial dilutions of unlabeled FGFR-IgG were added along with a constant amount (500 pM−2.5 nM) of Europium-labeled FGFR-IgG in Delphia Assay Buffer (prepared according to instructions from E&G Wallac), and reactions allowed to incubate for 2 h. Wells were washed 8× in Delphia Wash Buffer, treated with 100 μL of Delphia Enhancer Solution and fluorescence measured. IC50 values were determined from four-parameter fits to displacement plots."}, "FGFR1c ECD": {"target": "T2, FGFR1c ECD (Homo sapiens, UniProt P11362)", "T2 construct": "human FGFR Ic (residues 1-377); made in house", "T2 sequence (P11362 22-377)": "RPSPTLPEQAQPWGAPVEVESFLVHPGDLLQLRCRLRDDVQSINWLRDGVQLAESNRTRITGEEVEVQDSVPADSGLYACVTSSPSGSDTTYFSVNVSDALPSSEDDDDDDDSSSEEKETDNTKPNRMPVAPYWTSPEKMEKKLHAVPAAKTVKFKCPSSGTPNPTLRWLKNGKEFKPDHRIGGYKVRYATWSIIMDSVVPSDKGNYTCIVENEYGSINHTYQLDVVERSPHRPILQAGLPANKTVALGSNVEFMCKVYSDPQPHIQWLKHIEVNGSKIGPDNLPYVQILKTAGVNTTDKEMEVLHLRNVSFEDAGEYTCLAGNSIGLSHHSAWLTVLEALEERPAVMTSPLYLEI", "test": "BIAcore real-time kinetic analysis on immobilized FGFR1c ECD", "format": "binding", "details": "absence of heparin", "experimental": "Apparent affinities for immobilized FGFR1c ECD were determined using BIAcore real-time kinetic analysis in the absence of heparin.\nProtein representing the linker segments and c-jun leucine zipper without the C19 sequence (FIG. 2) was expressed, purified, and characterized as for C19jun. C19 peptide with an intrapeptide disulfide bond was synthesized, purified by HPLC, and characterized by mass spectroscopy. C19junΔhep protein was prepared by changing human c-jun residues Arg276, Arg279, Lys285, and Lys288 in the leucine zipper domain to glutamines. Expression, purification, and characterization was as for C19jun. […] The extracellular ligand-binding domain of human FGFR Ic (residues 1-377) and human erythropoietin receptor (residues 1-250) were fused to the Fc region of human IgG1, expressed in baculovirus and purified by protein A affinity chromatography. […] PDGF receptor Fc fusion protein was from R&D Systems."}, "[4]": {"test": "Binding to heparin agarose beads"}},
  "note": "Where two headings read alike, the source gives them in different places. Where a SMILES comes first, the peptide text is derived from it. Where no end group is shown, it is not given here.",
  "data": [
    {"molecule": "bFGF: basic fibroblast growth factor, natural FGF receptor ligand used as comparator [reference compound]", "values": [
      {"measurement": "MAP kinase phosphorylation", "setting": "[1]", "value": "induced"},
      {"measurement": "FGFR autophosphorylation", "setting": "FGFR", "value": "induced"},
      {"measurement": "neurite outgrowth / PC12 cell differentiation", "setting": "PC12 cells", "value": "appearance of neurite extensions"},
      {"measurement": "EC50", "setting": "Swiss 3T3 fibroblasts; Swiss 3T3, 15 U/ml heparin, FIG. 3, read-out: EC50 stimulation of mitogenesis (BrdU incorporation)", "value": 0.14, "unit": "nM"},
      {"measurement": "c-fos mRNA expression in FGFR-expressing L6 cells", "setting": "[2]", "value": "stimulated c-fos mRNA expression"},
      {"measurement": "c-fos mRNA expression in control L6 cells", "setting": "control L6 cells", "value": "neither was active"}
    ]},
    {"molecule": "TLVCDTVLEGQWRVCNWE [F12 clone]", "values": [
      {"measurement": "IC50", "setting": "[3]", "value": "~12", "unit": "nM"}
    ]},
    {"molecule": "CC[C@H](C)[C@@H]1NC(=O)[C@H](CCCCN)NC(=O)[C@H]([C@@H](C)O)NC(=O)[C@H](Cc2c[nH]c3ccccc23)NC(=O)[C@H](C)NC(=O)[C@H](CO)NC(=O)[C@H](CC(=O)O)NC(=O)[C@H]([C@@H](C)O)NC(=O)[C@H](Cc2ccccc2)NC(=O)[C@H](C(C)C)NC(=O)[C@H](CC(C)C)NC(=O)[C@H](C(C)C)NC(=O)[C@@H](NC(=O)[C@H](Cc2ccc(O)cc2)NC(=O)[C@H](CC(=O)O)NC(=O)[C@H](CC(=O)O)NC(=O)CNC(=O)[C@H](CO)NC(=O)[C@H](CCC(=O)O)NC(=O)[C@H](C)N)CSSC[C@@H](C(=O)N[C@@H](CC(=O)O)C(=O)N[C@@H](Cc2c[nH]c3ccccc23)C(=O)N[C@@H](CO)C(=O)N[C@@H](Cc2c[nH]cn2)C(=O)N[C@@H](Cc2ccccc2)C(=O)N[C@@H](CCCNC(=N)N)C(=O)N[C@@H](CC(N)=O)C(=O)O)NC1=O", "note": "[C19 synthetic peptide] (HELM PEPTIDE1{A.E.S.G.D.D.Y.C.V.L.V.F.T.D.S.A.W.T.K.I.C.D.W.S.H.F.R.N}$PEPTIDE1,PEPTIDE1,8:R3-21:R3$$$V2.0; N-terminus and C-terminus assumed)", "values": [
      {"measurement": "mitogenic activity in Swiss 3T3", "setting": "Swiss 3T3 fibroblasts", "value": "did not induce mitogenesis even at high concentrations"}
    ]},
    {"molecule": "jun leucine zipper only: Protein representing the linker segments and c-jun leucine zipper without the C19 sequence (RIARLEEKVKTLKAQNSELASTANMLREQVAQLKQKVMN; not fully specified) [reference compound]", "values": [
      {"measurement": "mitogenic activity in Swiss 3T3", "setting": "Swiss 3T3 fibroblasts; listed as Deletion of the C19 sequence from the fusion protein", "value": "abrogated mitogenic activity"},
      {"measurement": "mitogenic activity in Swiss 3T3", "setting": "Swiss 3T3 fibroblasts; listed as control protein", "value": "had no effect"},
      {"measurement": "Kd", "setting": "FGFR1c ECD; BIAcore, approximate, read-out: KD, apparent affinity for immobilized FGFR1c ECD", "value": "> 10000", "unit": "nM"}
    ]},
    {"molecule": "B1", "values": [
      {"measurement": "EC50", "setting": "Swiss 3T3 fibroblasts; Swiss 3T3, 18 hrs, 15 U/ml heparin, FIG. 6, read-out: EC50 mitogenic activity (BrdU incorporation)", "value": "~1.7", "unit": "nM"}
    ]},
    {"molecule": "B2", "values": [
      {"measurement": "mitogenic activity in Swiss 3T3", "setting": "Swiss 3T3 fibroblasts", "value": "inactive"},
      {"measurement": "binding to immobilized FGFR ECD", "setting": "FGFR1c ECD; in vitro", "value": "same apparent affinity as C19jun"},
      {"measurement": "heparin binding", "setting": "[4]", "value": "very low affinity for heparin"}
    ]}
  ]
}
